Test results as given in patent US4380535A, “Enkephalin degrading enzyme inhibitors” (priority 1981, dated 1983).
Counter-ions that a name gives are not always drawn.

Experiments:
[1] = system: enkephalin-degrading aminopeptidase; assay: inhibition of brain enzyme degradation of 3H-Leu-enkephalin (solubilized rat brain membrane preparation, TLC); assay type: biochemical; conditions: 1.0×10^-3 M inhibitor, 5.0×10^-4 M 3H-Leu-enkephalin, 37° C., 1 hour; control 52%
Description: The ability of the compounds of the invention to inhibit the brain enzyme degradation of enkephalins was studied in the following test procedure.
Brain enzymes from rats are used in the procedure and for this purpose solubilized rat brain membrane preparation, prepared as follows, is used:
Brains from young male Charles River Co. rats were homogenized in 30 volumes 50 mM Tris pH 7.7 with a Polytron (Brinkmann). The homogenate was centrifuged at 50,000 x g for 15 min. The supernatant was discarded the pellet resuspended in 50 mM Tris pH 7.7 and centrifuged at 50,000 x g for 15 min. The resultant pellet was resuspended, centrifuged and washed 3 additional times as described above. The membrane pellet was solubilized by resuspension in 15 volumes 50 mM Tris pH 7.7, 1% Triton X-100 and incubation at 37° C. for 45 min. […]
This preparation is incubated at 37° C. for 1 hour in the presence of 5.0×10^-4 M ^3 H-Leu-enkephalin in 50 mM tris buffer and 1.0×10^-3 M of the inhibitor to be tested. […] Markers of Leu-enkephalin (LE), tyrosinge (T) and tyrosine-glycine-glucine (TGG) are run with all samples and the relevant areas are scraped into scintillation vials and counted. […]
When N-Me-Tyr-D-Cys-Gly-N-MePhe-Thz-NH2 is tested in this procedure, the percentage of hydrolysis poructs (analyzed by TLC of tagged Leu-enkephalin) is as follows: […]

[2] = system: opiate receptor; assay: opiate receptor affinity, 3H-naloxone displacement in rat brain homogenate (modified Chang); assay type: binding; conditions: 3H-naloxone displacement (ID50) relative to morphine, with NaCl
[3] = system: phenylbenozquinone-induced writhing; assay: phenylbenzoquinone-induced writhing test (modified Siegmund); assay type: in vivo; conditions: mice, subcutaneous administration, at 15 minutes; limits (10.9-29.7)
Description: Biol. Med., 95, 729-731 (1957). According to this procedure, test compound is administered at various doses to ten mice per dose level. The animals then receive intraperitoneal injection with 0.25 ml of the writhing agonist (a 0.02% solution of benzoquinone) 5 min before the beginning of a pre-selected, 10 min observation period. Typical observation periods include 10 to 20, 25 to 35, 40 to 50 and 55 to 65 min following administration of the test compound. The mice are observed during the observation period for the presence of an all-or-none writhing reaction.
If the compound is active, its dose response and ED50 value are determined according to the method of D. J. Finney (Statistical Methods in Biological Assay, Griffin and Co., London, 1964).

## CN[C@@H](Cc1ccc(O)cc1)C(=O)N[C@H](CS)C(=O)NCC(=O)N(C)[C@@H](Cc1ccccc1)C(=O)N1CSC[C@H]1C(N)=O [N-Me-Tyr-D-Cys-Gly-N-MePhe-Thz-NH2, N^α -Methyl-L-tyrosyl-D-cysteinyl-glycyl-N-methyl-L-phenylalanyl-L-thiazolidine-4-carboxamide, acetate salt]
[1]
  percentage of hydrolysis products: Tyr: 14%
[2]
  relative displacement potency as compared to morphine (1): 2.6
[3]
  ED50: 18 mg/kg
